Test results from patent US10314793B2, “Solubilized CoQ-10” (Soft Gel Technologies, Inc., priority 2003, dated 2019).

Test: Solubilization of CoQ-10 in solvent (monoterpenes; prior liquid delivery solvents)
Assay type: physicochemical
Details: without heating or with gentle warming; ambient temperatures
Description: The present invention pertains to the surprising discovery that ubiquinone (CoQ-10) and related analogs thereof can be readily dissolved in varying concentrations in monoterpenes. Generally, until the present discovery, most CoQ-10 liquid delivery methods could solubilize only up to about 5% by weight of the CoQ-10 in the “solvent”. Typical solvents included various oils or the CoQ-10 was held in suspension. The present invention provides the ability to solubilize CoQ-10 in monoterpenes in concentrations of up to about 60% (weight to weight) without the need to aggressively heat the solution or with gentle warming. In particular, the solubilization of the CoQ-10 with monoterpenes can be accomplished at ambient temperatures.
Generally, until the present discovery, most CoQ-10 liquid delivery methods could solubilize only up at most about 10% by weight of the CoQ-10 in the solvent. Typical solvents included oils or the CoQ-10 was held in an aqueous suspension. Alternatively, the CoQ-10 was provided as a solid in a tablet or powder.
The present invention provides the ability to solubilize CoQ-10 and analogs thereof in monoterpenes, as defined herein, in concentrations of up to about 60% (weight to weight) without the need to heat the solution. In one aspect, the monoterpene solubilizes CoQ-10 from about 0.1 percent by weight to about 45 percent by weight. […]

CoQ-10 solubilized in monoterpenes: up to 60 % (weight to weight)
Compound: COC1=C(OC)C(=O)C(C/C=C(\C)CC/C=C(\C)CC/C=C(\C)CC/C=C(\C)CC/C=C(\C)CC/C=C(\C)CC/C=C(\C)CC/C=C(\C)CC/C=C(\C)CCC=C(C)C)=C(C)C1=O [CoQ-10]
